From patent US6054484A, “Transparent aqueous solution of diclofenac sodium and medicinal compositions with the use of the same” (Tsumura & Co., priority 1996, dated 2000)

Experiments:
[1] = cited from earlier work
[2] = Solubility of drug substance in water, oil ingredients and fatty acid diethanolamide; format: physicochemical

Compound	solubility in water [1]	dissolution in coconut fatty acid diethanolamide ([2]; coconut fatty acid diethanolamide alone)	solubility in oil ingredients ([2]; in oil ingredients)	dissolution in liquid mixture of coconut fatty acid diethanolamide with water ([2]; liquid mixture with water)	solubility in water (in words) [1]
O=C(O)Cc1ccccc1Nc1c(Cl)cccc1Cl [diclofenac sodium]	about 1.5 wt. %	does not dissolve	low solubility	at a high concentration and stably	–
COc1ccc2c(c1)c(CC(=O)O)c(C)n2C(=O)c1ccc(Cl)cc1 [indomethacin]	–	–	–	–	insoluble in water
